# Measurements from ChEMBL document CHEMBL5050844 (2019).
# Key:
# [1] = Induction of anti-CD3/CD28 antibodies-stimulated human anergic T cell activation at 10 uM assessed fold increase in IFN-gamma secretion measured by ELISA assay; type: functional, T cell line
# [2] = Induction of allogenic human T cell activation at 3 uM assessed fold increase in cell proliferation; type: functional, T cell line
# [3] = Induction of anti-CD3 antibodies-stimulated human CD8+ T cell activation at 1.11 uM assessed fold increase in CD69 expression measured by flow cytometry analysis; type: functional, T cell line; also: reference of the scale not given here
# [4] = Induction of anti-CD3/CD28 antibodies-stimulated human T cell activation at 0.3 uM assessed fold increase in IL-2 secretion measured by ELISA assay; type: functional, T cell line
# [5] = Induction of anti-CD3/CD28 antibodies-stimulated human CD8+ T cell activation at 10 uM assessed fold increase in cell proliferation measured by flow cytometry analysis; type: functional, T cell line
# [6] = Induction of anti-CD3 antibodies-stimulated human exhausted T cell activation assessed fold increase in GM-CSF secretion measured by ELISA assay; type: functional, T cell line; also: reference of the scale not given here
# [7] = Induction of anti-CD3 antibodies-stimulated human T cell activation at 8 uM assessed fold increase in CD25 expression measured by ELISA assay; type: functional, T cell line; also: reference of the scale not given here
# [8] = Induction of anti-CD3 antibodies-stimulated human T cell activation at 10 uM assessed fold increase in GM-CSF secretion measured by ELISA assay; type: functional, T cell line; also: reference of the scale not given here
# [9] = Induction of anti-CD3 antibodies-stimulated human CD4+ T cell activation at 10 uM assessed fold increase in CD69 expression measured by flow cytometry analysis; type: functional, T cell line; also: reference of the scale not given here
# [10] = Induction of anti-CD3 antibodies-stimulated human T cell activation at 8 uM assessed fold increase in IL-2 secretion measured by ELISA assay; type: functional, T cell line; also: reference of the scale not given here
# [11] = Induction of anti-CD3 antibodies-stimulated human CD4+ T cell activation at 1.11 uM assessed fold increase in CD69 expression measured by flow cytometry analysis; type: functional, T cell line; also: reference of the scale not given here
# [12] = Induction of activation of human CD56+ CD3- NK cells co-cultured with human K562 cells in 1:1 ratio and assessed as increase in TNF-alpha secretion at 2.5 uM measured by ELISA assay; type: functional, Natural killer cell
# [13] = Induction of anti-CD3 antibodies-stimulated human T cell activation at 10 uM assessed fold increase in IFN-gamma secretion measured by ELISA assay; type: functional, T cell line; also: reference of the scale not given here
# [14] = Induction of activation of human CD56+ CD3- NK cells co-cultured with human K562 cells in 1:1 ratio and assessed as increase in IFN-gamma secretion at 0.625 uM measured by ELISA assay; type: functional, Natural killer cell
# [15] = Induction of anti-CD3/CD28 antibodies-stimulated human T cell activation at 10 uM assessed fold increase in IFN-gamma secretion measured by ELISA assay; type: functional, T cell line
# [16] = Induction of anti-CD3 antibodies-stimulated human T cell activation at 1 uM assessed fold increase in CD25 expression measured by ELISA assay; type: functional, T cell line; also: reference of the scale not given here
# [17] = Induction of anti-CD3/CD28 antibodies-stimulated human T cell activation at 10 uM assessed fold increase in GM-CSF secretion measured by ELISA assay; type: functional, T cell line
# [18] = Induction of anti-CD3 antibodies-stimulated human exhausted CD4+ T cell activation assessed fold increase in CTLA4 expression measured by flow cytometry analysis; type: functional, T cell line; also: reference of the scale not given here
# [19] = Induction of anti-CD3/CD28 antibodies-stimulated human T cell activation at 1 uM assessed fold increase in CD25 expression measured by ELISA assay; type: functional, T cell line
# [20] = Induction of anti-CD3/CD28 antibodies-stimulated human T cell activation at 4 uM assessed fold increase in CD25 expression measured by ELISA assay; type: functional, T cell line
# [21] = Induction of anti-CD3/CD28 antibodies-stimulated human T cell activation at 0.3 uM assessed fold increase in CD25 expression measured by ELISA assay; type: functional, T cell line
# [22] = Induction of anti-CD3 antibodies-stimulated human T cell activation at 1.11 uM assessed fold increase in GM-CSF secretion measured by ELISA assay; type: functional, T cell line; also: reference of the scale not given here
# [23] = Induction of anti-CD3/CD28 antibodies-stimulated human T cell activation at 1.11 uM assessed fold increase in IFN-gamma secretion measured by ELISA assay; type: functional, T cell line
# [24] = Induction of anti-CD3/CD28 antibodies-stimulated human CD8+ T cell activation at 1.11 uM assessed fold increase in CD69 expression measured by flow cytometry analysis; type: functional, T cell line
# [25] = Induction of anti-CD3/CD28 antibodies-stimulated human anergic T cell activation at 1.11 uM assessed fold increase in IFN-gamma secretion measured by ELISA assay; type: functional, T cell line
# [26] = Induction of anti-CD3/CD28 antibodies-stimulated human CD4+ T cell activation at 1.11 uM assessed fold increase in cell proliferation measured by flow cytometry analysis; type: functional, T cell line
# [27] = Induction of anti-CD3/CD28 antibodies-stimulated human CD4+ T cell activation at 10 uM assessed fold increase in CD69 expression measured by flow cytometry analysis; type: functional, T cell line
# [28] = Induction of anti-CD3 antibodies-stimulated human exhausted T cell activation assessed fold increase in IL-2 secretion measured by ELISA assay; type: functional, T cell line; also: reference of the scale not given here
# [29] = Induction of anti-CD3 antibodies-stimulated human exhausted T cell activation assessed fold increase in IFN-gamma secretion measured by ELISA assay; type: functional, T cell line; also: reference of the scale not given here
# [30] = Induction of anti-CD3/CD28 antibodies-stimulated human T cell activation at 4 uM assessed fold increase in IL-2 secretion measured by ELISA assay; type: functional, T cell line
# [31] = Induction of anti-CD3 antibodies-stimulated human T cell activation at 1 uM assessed fold increase in IL-2 secretion measured by ELISA assay; type: functional, T cell line; also: reference of the scale not given here
# [32] = Induction of anti-CD3 antibodies-stimulated human CD8+ T cell activation at 10 uM assessed fold increase in CD69 expression measured by flow cytometry analysis; type: functional, T cell line; also: reference of the scale not given here
# [33] = Induction of activation of human CD56+ CD3- NK cells co-cultured with human K562 cells in 1:1 ratio and assessed as increase in TNF-alpha secretion at 0.625 uM measured by ELISA assay; type: functional, Natural killer cell
# [34] = Induction of activation of human CD56+ CD3- NK cells co-cultured with human K562 cells in 1:1 ratio and assessed as increase in IFN-gamma secretion at 10 uM measured by ELISA assay; type: functional, Natural killer cell
# [35] = Induction of anti-CD3/CD28 antibodies-stimulated human CD8+ T cell activation at 1.11 uM assessed fold increase in cell proliferation measured by flow cytometry analysis; type: functional, T cell line
# [36] = Induction of anti-CD3 antibodies-stimulated human T cell activation at 1.11 uM assessed fold increase in IFN-gamma secretion measured by ELISA assay; type: functional, T cell line; also: reference of the scale not given here
# B cell = assay: Induction of anti-IgM-stimulated human CD20+ B cell activation at 10 to 1000 uM assessed as increase in CD69 expression measured as mean fluorescence intensity AUC by flow cytometry analysis; type: functional, cell-based; conditions: dose 10-1000 µM
# [37] = Induction of anti-CD3/CD28 antibodies-stimulated human CD4+ T cell activation at 10 uM assessed fold increase in cell proliferation measured by flow cytometry analysis; type: functional, T cell line
# [38] = Induction of allogenic human T cell activation at 10 uM assessed fold increase in cell proliferation; type: functional, T cell line
structure (smiles),measurement,setting,value
C[C@@H](c1cc2c(c(C(F)(F)F)c1)CN(c1cccc(C3(Cc4nncn4C)COC3)c1)C2=O)N1CC[C@H](F)C1,fold change (FC),[1],>4.01
same,fold change (FC),[2],>3
same,fold change (FC),[3],1.401
same,fold change (FC),[4],>=7.5
same,fold change (FC),[5],>4
same,fold change (FC),[6],1.41
same,fold change (FC),[7],>=1.001
same,fold change (FC),[8],>4
same,fold change (FC),[9],>1.601
same,fold change (FC),[10],>=0.201
same,fold change (FC),[11],>1.601
same,fold change (FC),[12],2.01
same,fold change (FC),[13],>4
same,fold change (FC),[14],2.01
same,fold change (FC),[15],>4
same,fold change (FC),[16],>=1.001
same,fold change (FC),[17],>4
same,fold change (FC),[18],<=1.4
same,fold change (FC),[19],1.51
same,fold change (FC),[20],1.51
same,fold change (FC),[21],1.31
same,fold change (FC),[22],>4
same,fold change (FC),[23],>4
same,fold change (FC),[24],1.201
same,fold change (FC),[25],>4.01
same,fold change (FC),[26],>4
same,fold change (FC),[27],1.401
same,fold change (FC),[28],<=2.5
same,fold change (FC),[29],>1.61
same,fold change (FC),[30],>=7.5
same,fold change (FC),[31],>=0.201
same,fold change (FC),[32],1.401
same,fold change (FC),[33],2.01
same,fold change (FC),[34],>=5
same,fold change (FC),[35],>4
same,fold change (FC),[36],3.01
same,AUC,B cell,> 1.51
same,fold change (FC),[37],>4
same,fold change (FC),[38],>3
C[C@H](Cc1nncn1C)c1cccc(NC(=O)c2n[nH]c3c2CCC3)c1,fold change (FC),[1],<=2.5
same,fold change (FC),[2],<=2
same,fold change (FC),[3],1.401
same,fold change (FC),[4],1.01
same,fold change (FC),[5],2.01
same,fold change (FC),[6],<=1.4
same,fold change (FC),[7],0.801
same,fold change (FC),[8],1.51
same,fold change (FC),[9],1.201
same,fold change (FC),[10],0.151
same,fold change (FC),[11],>1.601
same,fold change (FC),[12],1.01
same,fold change (FC),[13],<=2
same,fold change (FC),[14],1.01
same,fold change (FC),[15],2.01
same,fold change (FC),[16],0.601
same,fold change (FC),[17],2.01
same,fold change (FC),[18],<=1.4
same,fold change (FC),[19],1.01
same,fold change (FC),[20],1.01
same,fold change (FC),[21],1.01
same,fold change (FC),[22],<=1.5
same,fold change (FC),[23],<=2
same,fold change (FC),[24],1.201
same,fold change (FC),[25],<=2.5
same,fold change (FC),[26],>4
same,fold change (FC),[27],1.201
same,fold change (FC),[28],<=2.5
same,fold change (FC),[29],<=1.4
same,fold change (FC),[30],2.51
same,fold change (FC),[31],0.101
same,fold change (FC),[32],<=1.2
same,fold change (FC),[33],1.01
same,fold change (FC),[34],2.01
same,fold change (FC),[35],3.01
same,fold change (FC),[36],2.01
same,AUC,B cell,0.5
same,fold change (FC),[37],>4
same,fold change (FC),[38],<=2
C[C@H](Cc1nncn1C)c1cccc(N2Cc3c(cccc3C(F)(F)F)C2=O)c1.Cl,fold change (FC),[1],<=2.5
same,fold change (FC),[2],<=2
same,fold change (FC),[3],<=1.2
same,fold change (FC),[4],1.01
same,fold change (FC),[5],2.01
same,fold change (FC),[6],<=1.4
same,fold change (FC),[7],>=1.001
same,fold change (FC),[8],<=1.5
same,fold change (FC),[9],<=1.2
same,fold change (FC),[10],>=0.201
same,fold change (FC),[11],<=1.2
same,fold change (FC),[12],1.01
same,fold change (FC),[13],<=2
same,fold change (FC),[14],1.01
same,fold change (FC),[15],>4
same,fold change (FC),[16],0.601
same,fold change (FC),[17],1.51
same,fold change (FC),[18],1.41
same,fold change (FC),[19],1.51
same,fold change (FC),[20],>=1.76
same,fold change (FC),[21],1.31
same,fold change (FC),[22],<=1.5
same,fold change (FC),[23],3.01
same,fold change (FC),[24],<=1.2
same,fold change (FC),[25],2.51
same,fold change (FC),[26],<=2
same,fold change (FC),[27],1.201
same,fold change (FC),[28],<=2.5
same,fold change (FC),[29],<=1.4
same,fold change (FC),[30],5
same,fold change (FC),[31],0.051
same,fold change (FC),[32],<=1.2
same,fold change (FC),[33],1.01
same,fold change (FC),[34],2.01
same,fold change (FC),[35],<=2
same,fold change (FC),[36],<=2
same,AUC,B cell,1.01
same,fold change (FC),[37],3.01
same,fold change (FC),[38],<=2
